Measurements: patent publication US9315518B2, “Imidazopyridin-2-one derivatives” (Merck Sharp & Dohme Corp., priority 2011, dated 2016)

target: recombinant human mGluR2 (Homo sapiens (Human), UniProt Q14416); experiment: FLIPR Ca2+ mobilization assay, potentiation of glutamate response; assay type: cell-based; conditions: CHO dhfr- cells expressing human mGluR2 and Gα16; potentiation with EC20 glutamate (900 nM); read-out: hFLIPR pot. EC50
Protocol: Inhibition constants are determined as follows. The compounds of the present invention may be tested in a […] (FLIPR) based assay. This assay is a common functional assay to monitor Ca^2+ mobilization in whole cells expressing recombinant receptor coupled with a promiscuous G-protein. CHO dhfr-cells stably expressing recombinant human mGluR2 and Gα16 loaded with Fluo-4 AM (Invitrogen, Carlsbad Calif.) are treated with dose responses of compounds and the Ca^2+ response is monitored on a FLIPR384 (Molecular Devices, Sunnydale Calif.) for agonist activity. The potentiation response is monitored after a subsequent addition of an EC20 concentration of glutamate (900 nM). The maximum calcium response at each concentration of compound for agonist or potentiation are plotted as dose responses and the curves are fitted with a four parameters logistic equation giving EC50 and Hill coefficient using the iterative non linear curve fitting software program.

recombinant human mGluR2, sequence (Q14416 19-872): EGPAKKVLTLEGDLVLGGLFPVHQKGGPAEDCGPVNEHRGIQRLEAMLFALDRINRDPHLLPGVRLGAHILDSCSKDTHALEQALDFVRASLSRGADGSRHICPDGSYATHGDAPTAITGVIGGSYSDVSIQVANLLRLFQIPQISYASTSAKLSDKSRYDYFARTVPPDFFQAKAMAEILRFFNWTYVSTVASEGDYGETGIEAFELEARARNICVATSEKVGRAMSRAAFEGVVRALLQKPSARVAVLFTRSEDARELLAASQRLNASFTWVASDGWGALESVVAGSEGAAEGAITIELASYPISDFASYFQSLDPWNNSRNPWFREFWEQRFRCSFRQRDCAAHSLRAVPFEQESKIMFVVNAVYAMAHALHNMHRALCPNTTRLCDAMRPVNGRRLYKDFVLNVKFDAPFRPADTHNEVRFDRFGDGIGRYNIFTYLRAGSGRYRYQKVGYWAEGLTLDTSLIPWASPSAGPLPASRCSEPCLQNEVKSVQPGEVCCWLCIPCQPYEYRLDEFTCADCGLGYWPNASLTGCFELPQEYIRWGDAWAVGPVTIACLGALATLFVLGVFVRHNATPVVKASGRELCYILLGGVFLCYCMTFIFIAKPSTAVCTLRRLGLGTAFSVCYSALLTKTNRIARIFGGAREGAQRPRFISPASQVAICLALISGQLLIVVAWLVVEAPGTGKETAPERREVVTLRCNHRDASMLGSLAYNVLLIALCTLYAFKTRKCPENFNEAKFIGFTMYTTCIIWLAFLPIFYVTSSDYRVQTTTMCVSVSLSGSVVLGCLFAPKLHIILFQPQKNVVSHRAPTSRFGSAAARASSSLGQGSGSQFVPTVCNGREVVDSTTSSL

`Cn1c(=O)n(CC(C)(C)C)c2ccc(C3=CC4CCC3CN4C(=O)c3csnn3)nc21` (stereo not shown) [Compound 2-8, 1-(2,2-dimethylpropyl)-3-methyl-5-[2-(1,2,3-thiadiazol-4-ylcarbonyl)-2-azabicyclo[2.2.2]oct-5-en-5-yl]-1,3-dihydro-2H-imidazo[4,5-b]pyridin-2-one] and `Cn1c(=O)n(CC(C)(C)C)c2ccc(C3=CC4CCC3CN4C(=O)c3ncco3)nc21` (stereo not shown) [Compound 2-34, 1-(2,2-dimethylpropyl)-3-methyl-5-[2-(1,3-oxazol-2-ylcarbonyl)-2-azabicyclo[2.2.2]oct-5-en-5-yl]-1,3-dihydro-2H-imidazo[4,5-b]pyridin-2-one] are within 1.5-fold of each other in EC50: 0.0281 µM for the first, 0.0228 µM for the second.

Compared with `Cn1c(=O)n(CC(C)(C)C)c2ccc(C3=CC4CCC3CN4C(=O)c3cccnc3)nc21` (stereo not shown) [Compound 2-9, 1-(2,2-dimethylpropyl)-3-methyl-5-[2-(pyridin-3-ylcarbonyl)-2-azabicyclo[2.2.2]oct-5-en-5-yl]-1,3-dihydro-2H-imidazo[4,5-b]pyridin-2-one], `Cn1c(=O)n(CC(C)(C)C)c2ccc(C3=CC4CCC3CN4C(=O)C3CC3)nc21` (stereo not shown) [Compound 2-16, 5-[2-(cyclopropylcarbonyl)-2-azabicyclo[2.2.2]oct-5-en-5-yl]-1-(2,2-dimethylpropyl)-3-methyl-1,3-dihydro-2H-imidazo[4,5-b]pyridin-2-one] is 1.6-fold lower in EC50: 0.1 µM for the first, 0.0641 µM for the second. The second is the more potent here.

Going from `Cn1c(=O)n(CC(C)(C)C)c2ccc(C3=CC4CCC3CN4C(=O)Cn3cncn3)nc21` (stereo not shown) [Compound 2-22, 1-(2,2-dimethylpropyl)-3-methyl-5-[2-(1H-1,2,4-triazol-1-ylacetyl)-2-azabicyclo[2.2.2]oct-5-en-5-yl]-1,3-dihydro-2H-imidazo[4,5-b]pyridin-2-one] to `Cn1c(=O)n(CC(C)(C)C)c2ccc(C3CCC(C)(C)C(NC(=O)CCn4cncn4)C3)nc21` (stereo not shown) [Compound 18-10, N-{5-[1-(2,2-dimethylpropyl)-3-methyl-2-oxo-2,3-dihydro-1H-imidazo[4,5-b]pyridin-5-yl]-2,2-dimethylcyclohexyl}-3-(1H-1,2,4-triazol-1-yl)propanamide], the EC50 rises from 0.0561 µM to 2.19 µM (39-fold).

`Cn1c(=O)n(CC(C)(C)C)c2ccc(C3CC4CCC3CN4C(=O)c3ccon3)nc21` (stereo not shown) [Compound 5-2, 1-(2,2-Dimethylpropyl)-5-[2-(isoxazol-3-ylcarbonyl)-2-azabicyclo[2.2.2]-oct-5-yl]-3-methyl-1,3-dihydro-2H-imidazo[4,5-b]pyridin-2-one] and `Cn1c(=O)n(CC(C)(C)C)c2ccc(C3CC4CN(C(=O)c5ncc[nH]5)CC4C3)nc21` (stereo not shown) [Compound 11-5, 1-(2,2-dimethylpropyl)-5-[2-(1H-imidazol-2-ylcarbonyl)octahydrocyclo-penta[c]pyrrol-5-yl]-3-methyl-1,3-dihydro-2H-imidazo[4,5-b]pyridin-2-one] are within 1.5-fold of each other in EC50: 0.322 µM for the first, 0.391 µM for the second.

Compared with `Cn1c(=O)n(CC2CC2(F)F)c2ccc(C3=CC4CCC3CN4C(=O)c3ccon3)nc21` (stereo not shown) [Compound 6-4, 1-[(2,2-Difluorocyclopropyl)methyl]-5-[2-(isoxazol-3-ylcarbonyl)-2-azabicyclo-[2.2.2]oct-5-en-5-yl]-3-methyl-1,3-dihydro-2H-imidazo[4,5-b]pyridin-2-one], `Cn1c(=O)n(CC2CC2(F)F)c2ccc(C3=CC4CN(C(=O)c5ncco5)CC4C3)nc21` (stereo not shown) [Compound 14-6, 1-[(2,2-difluoro-cyclopropyl)methyl]-3-methyl-5-[2-(1,3-oxazol-2-ylcarbonyl)-1,2,3,3a,4,6a-hexahydrocyclo-penta[c]pyrrol-5-yl]-1,3-dihydro-2H-imidazo[4,5-b]pyridin-2-one] is 4.2-fold higher in EC50: 0.029 µM for the first, 0.123 µM for the second.

Compared with `Cn1c(=O)n(CC(C)(C)C)c2ccc(C3=CC4CN(C(=O)C5(O)CCN(C(=O)OC(C)(C)C)C5)CC4C3)nc21` (stereo not shown) [Compound 8-6, tert-butyl 3-({5-[1-(2,2-dimethylpropyl)-3-methyl-2-oxo-2,3-dihydro-1H-imidazo[4,5-b]pyridin-5-yl]-3,3a,4,6a-tetrahydrocyclopenta[c]pyrrol-2(1H)-yl}carbonyl)-3-hydroxypyrrolidine-1-carboxylate], `Cn1c(=O)n(CC(C)(C)C)c2ccc(C3=CC4CN(C(=O)C5(O)CCC5)CC4C3)nc21` (stereo not shown) [Compound 8-14, 1-(2,2-dimethylpropyl)-5-{2-[(1-hydroxycyclobutyl)carbonyl]-1,2,3,3a,4,6a-hexahydrocyclopenta[c]pyrrol-5-yl}-3-methyl-1,3-dihydro-2H-imidazo[4,5-b]pyridin-2-one] is 3.8-fold lower in EC50: 0.513 µM for the first, 0.134 µM for the second.

First: Cn1c(=O)n(CC(C)(C)C)c2ccc(C3=CC4CN(C(=O)CO)CC4C3)nc21 (stereo not shown) [Compound 8-9, 1-(2,2-dimethylpropyl)-5-[2-(hydroxyacetyl)-1,2,3,3a,4,6a-hexahydrocyclopenta[c]pyrrol-5-yl]-3-methyl-1,3-dihydro-2H-imidazo[4,5-b]pyridin-2-one]
Second: Cn1c(=O)n(CC(C)(C)C)c2ccc(C3=CC4CN(C(=O)c5ncco5)CC4C3)nc21 (stereo not shown) [Compound 8-38]
The EC50 of the first is 15-fold higher: 0.27 µM for the first, 0.0179 µM for the second.

First: Cn1c(=O)n(CC(C)(C)C)c2ccc(C3=CCC(C(=O)NCc4ncco4)CC3)nc21 (stereo not shown) [Compound 17-15, 4-[1-(2,2-dimethylpropyl)-3-methyl-2-oxo-2,3-dihydro-1H-imidazo[4,5-b]pyridin-5-yl]-N-(1,3-oxazol-2-ylmethyl)cyclohex-3-ene-1-carboxamide]
Second: Cn1c(=O)n(CC(C)(C)C)c2ccc(C3=CCC(NC(=O)C4CCCO4)CC3)nc21 (stereo not shown) [Compound 17-20, N-{4-[1-(2,2-dimethylpropyl)-3-methyl-2-oxo-2,3-dihydro-1H-imidazo[4,5-b]pyridin-5-yl]cyclohex-3-en-1-yl}tetrahydrofuran-2-carboxamide]
The EC50 of the first is 1.8-fold higher: 0.594 µM for the first, 0.333 µM for the second. The second is the more potent here.

Going from `Cn1c(=O)n(CC(C)(C)C)c2ccc(C3CCC(C)(C)C(NC(=O)c4ccc(OC(F)(F)F)cc4)C3)nc21` (stereo not shown) [Compound 18-42, N-{5-[1-(2,2-dimethylpropyl)-3-methyl-2-oxo-2,3-dihydro-1H-imidazo[4,5-b]pyridin-5-yl]-2,2-dimethylcyclohexyl}-4-(trifluoro-methoxy)benzamide] to `Cn1c(=O)n(CC(C)(C)C)c2ccc(C3CCC(C)(C)C(NC(=O)c4cnsn4)C3)nc21` (stereo not shown) [Compound 18-200, N-{5-[1-(2,2-dimethylpropyl)-3-methyl-2-oxo-2,3-dihydro-1H-imidazo[4,5-b]pyridin-5-yl]-2,2-dimethylcyclohexyl}-1,2,5-thiadiazole-3-carboxamide], the EC50 falls from 0.986 µM to 0.0432 µM (23-fold).

Going from `Cn1cnc(S(=O)(=O)N2CCCC(c3ccc4c(n3)n(C)c(=O)n4CC(C)(C)C)C2)c1` (stereo not shown) [Compound 19-4, 1-(2,2-dimethylpropyl)-3-methyl-5-{1-[(1-methyl-1H-imidazol-4-yl)sulfonyl]piperidin-3-yl}-1,3-dihydro-2H-imidazo[4,5-b]pyridin-2-one] to `Cc1cccc(S(=O)(=O)NC2CC(c3ccc4c(n3)n(C)c(=O)n4CC(C)(C)C)CCC2(C)C)c1` (stereo not shown) [Compound 19-62, N-{5-[1-(2,2-dimethylpropyl)-3-methyl-2-oxo-2,3-dihydro-1H-imidazo[4,5-b]pyridin-5-yl]-2,2-dimethylcyclohexyl}-3-methylbenzenesulfonamide], the EC50 falls from 0.951 µM to 0.116 µM (8.2-fold). The second is the more potent here.

Going from `CN1c2nc(C3=CC4CN(C(=O)C(C)(C)O)CC4C3)ccc2N(CC2CC2(F)F)S1(=O)=O` (stereo not shown) [Compound 24-7, 1-[5-{1-[(2,2-difluorocyclopropyl)methyl]-3-methyl-2,2-dioxido-1,3-dihydro[1,2,5]thiadiazolo[3,4-b]pyridin-5-yl}-3,3a,4,6a-tetrahydrocyclopenta [c]pyrrol-2(1H)-yl]-2-methyl-1-oxopropan-2-ol] to `CC1C(c2ccc3c(n2)N(C)S(=O)(=O)N3CC2CC2(F)F)C1C(C)(C)O` (stereo not shown) [Compound 34-3, 2-(2-{1-[(2,2-difluorocyclopropyl)methyl]-3-methyl-2,2-dihydro[1,2,5]thiadiazolo[3,4-b]pyridin-5-yl}-3-methylcyclopropyl) propan-2-ol], the EC50 falls from 0.0485 µM to 0.0144 µM (3.4-fold).

Going from `CN1c2nc(C3=CCN(C(=O)c4ccon4)C3)ccc2N(CC2CC2(F)F)S1(=O)=O` (stereo not shown) [Compound 24-20, 1-[(2,2-difluorocyclopropyl)methyl]-5-[1-(isoxazol-3-ylcarbonyl)-2,5-dihydro-1H-pyrrol-3-yl]-3-methyl-1,3-dihydro[1,2,5] thiadiazolo[3,4-b]pyridine 2,2-dioxide] to `CN1c2nc(C3CCCNC3)ccc2N(CC2CC2(F)F)S1(=O)=O` (stereo not shown) [Compound 25-5, 1-[(2,2-difluorocyclopropyl)methyl]-3-methyl-5-piperidin-3-yl-1,3-dihydro[1,2,5] thiadiazolo[3,4-b]pyridine 2,2-dioxide], the EC50 rises from 0.177 µM to 0.359 µM (2-fold). The first is the more potent here.

For `Cn1cnc(C(=O)NCCCCc2ccc3c(n2)n(C)c(=O)n3CC(C)(C)C)c1` [Compound 38-5, N-{4-[1-(2,2-dimethylpropyl)-3-methyl-2-oxo-2,3-dihydro-1H-imidazo[4,5-b]pyridin-5-yl]butyl}-1-methyl-1H-imidazole-4-carboxamide], the EC50 was 1.18 µM.
